Test results from patent publication US20230270893A1, “GALLIUM-LABELED GASTRIN ANALOGUE AND USE IN A METHOD OF IMAGING CCKB-RECEPTOR-POSITIVE TUMORS OR CANCERS” (DEBIOPHARM INTERNATIONAL S.A., priority 2020, published 2023).
Read-outs that look alike come from different tables or passages of the source.

Legend:
[1] = Ex vivo biodistribution study in naïve adult CD1 mice; conditions: for tissue uptake at 1 h: CD1, mouse, iv, 0.04 ug, total radioactivity; for tissue uptake at 1 h / Retention in stomach: 60 min post-injection
Protocol: (§1) Ex vivo biodistribution study. Female (FIG. 1A) and male (FIG. 1B) naïve adult CD1 mice (immunocompetent) were injected with [^68Ga]Ga-PPF11N ((0.19±0.04) MBq, 0.04 μg, 1.3 μg/kg). Mice were sacrificed at 5, 15, 30, 60, 120 and 240 min post-injection (N=4 each). A control group of mice of each sex was co-injected with a blocking dose of PPF11N peptide (40 μg, 1.3 mg/kg) and sacrificed at 60 min post-injection. Organs (blood, bone, brain, colon, gonad, kidney, liver, lung, muscle, pancreas, stomach) were weighted and assessed for activity concentration over time. Ex vivo biodistribution in all resected tissues was computed as the percentage of injected dose per gram of tissue (% ID/g).
(§2) Immunocompetent CD1 mice (N=28 males and N=28 females on study, N=3 males and N=3 females spare; males 9 weeks old, females 5 weeks old at delivery) were acclimatized for 7 days, inspected daily and weighed on the day of injection. For each sex, mice were randomly allocated to 7 groups (N=4 mice per group) and each group was injected (bolus i.v. route into a laterial tail vein) with [^68Ga]Ga-PPF11N peptide ((0.19±0.04) MBq in 0.15 mL; (0.039±0.02) μg peptide in non-blocked groups. Following radiolabeling, each product batch was assessed by iTLC and HPLC to ensure the material met the target criteria. For the blocked group, 38±1 μg of peptide was injected. At 5 min, 15 min, 30 min, 1 h, 2 h and 4 h post-injection mice (n=4 per time point for each sex) were sacrificed by cervical dislocation and tissues (blood, bone, brain, colon, gonad, kidney, liver, lung, muscle, pancreas, stomach) were resected, weighed and the radioactivity was counted with a gamma-counter along with calibration standards (dilution series in triplicate). The study design is depicted in the table below.
The activity of each collected tissue was measured in units of counts per min (CPM). Triplicate aliquots of serial dilutions of the radiotracer were also assayed in the gamma counter in order to calculate a conversion factor to units of activity (% ID/g). Measured values were decay corrected and adjusted to account for background radiation

[2] = system: T1, CCK2R; experiment: Peptide blocking experiment (co-injection of blocking dose of PPF11N) in the ex vivo biodistribution study; design: species or system CD1 mice; conditions: CD1, stomach, iv, total radioactivity, 60 min post-injection, co-injected PPF11N 40 μg per mouse (1.3 mg/kg), read-out: Concentration in the stomach with peptide blocking dose
T1 construct: from tissue; host or cells: organs of naive CD1 mice (stomach and others), in vivo injection with ex vivo gamma counting
Protocol: as §1, §2
(§3) The activity of each collected tissue was measured in units of counts per min (CPM). […] Measured values were decay corrected and adjusted to account for background radiation

[3] = target: T2, CCK2R (Mus musculus, UniProt P56481); experiment: as above; design: species or system CD1 mice; conditions: male and female mice, 60 min post-injection, PPF11N 40 μg per mouse
T2 construct: from tissue; host or cells: organs of naive CD1 mice (stomach and others), in vivo injection with ex vivo gamma counting
T2 sequence (P56481 1-453): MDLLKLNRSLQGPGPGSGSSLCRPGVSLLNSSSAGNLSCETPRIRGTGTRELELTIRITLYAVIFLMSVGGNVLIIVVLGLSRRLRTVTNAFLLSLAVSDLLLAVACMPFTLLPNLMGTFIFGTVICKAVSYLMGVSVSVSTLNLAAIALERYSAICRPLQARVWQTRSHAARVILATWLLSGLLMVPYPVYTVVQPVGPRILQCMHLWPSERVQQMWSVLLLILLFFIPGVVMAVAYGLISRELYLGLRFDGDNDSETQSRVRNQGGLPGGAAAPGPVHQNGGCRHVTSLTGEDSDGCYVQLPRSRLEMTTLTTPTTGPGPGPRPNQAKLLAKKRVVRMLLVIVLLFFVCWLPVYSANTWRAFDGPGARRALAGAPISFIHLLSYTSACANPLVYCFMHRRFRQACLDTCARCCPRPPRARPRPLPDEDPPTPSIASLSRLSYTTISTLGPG
Protocol: as §1, §2, §3

## CCCC[C@H](NC(=O)[C@H](Cc1c[nH]c2ccccc12)NC(=O)CNC(=O)[C@H](Cc1ccc(O)cc1)NC(=O)[C@H](C)NC(=O)[C@@H](CCC(=O)O)NC(=O)[C@@H](CCC(=O)O)NC(=O)[C@@H](CCC(=O)O)NC(=O)[C@@H](CCC(=O)O)NC(=O)[C@@H](CCC(=O)O)NC(=O)[C@@H](CCC(=O)O)NC(=O)CN1CCN(CC(=O)O)CCN(CC(=O)O)CCN(CC(=O)O)CC1)C(=O)N[C@@H](CC(=O)O)C(=O)N[C@@H](Cc1ccccc1)C(N)=O [^68Ga-PPF11N, ^68Ga-Y-DGlu-DGlu-DGlu-DGlu-DGlu-DGlu-Ala-Tyr-Gly-Trp-Nle-Asp-Phe-NH2, metal not drawn]
[1]; blood, female mice, i.v., 0.04 μg peptide, read-out: Blood concentration
  tissue uptake at 1 h: 0.4 ± 0.12 %ID/g
[1]; blood, male mice, i.v., 0.04 μg peptide, read-out: Blood concentration
  tissue uptake at 1 h: 0.46 ± 0.35 %ID/g
[1]; kidney, female mice, read-out: Retention in kidneys
  tissue uptake at 1 h: 2.98 ± 0.53 %ID/g
[1]; kidney, male mice, read-out: Retention in kidneys
  tissue uptake at 1 h: 3.38 ± 0.67 %ID/g
[1]; muscle, female mice, read-out: Activity concentration in muscle
  tissue uptake at 1 h: 0.16 ± 0.09 %ID/g
[1]; muscle, male mice, read-out: Activity concentration in muscle
  tissue uptake at 1 h: 0.1 ± 0.03 %ID/g
[1]; stomach, female mice, read-out: Retention in stomach
  tissue uptake at 1 h: 1.71 ± 0.56 %ID/g
[1]; stomach, male mice, read-out: Retention in stomach
  tissue uptake at 1 h: 1.93 ± 0.18 %ID/g
[1]; female mice
  Retention in stomach: 1.71±0.56 % ID/g
[1]; male and female mice, 5 to 240 min post-injection
  Clearance from organs: rapid clearance from all organs except for kidneys and stomach
[1]; male mice
  Retention in stomach: 1.93±0.18 % ID/g
[2]; female mice
  tissue uptake at 1 h: 0.19 ± 0.02 %ID/g
[2]; male mice
  tissue uptake at 1 h: 0.32 ± 0.07 %ID/g
[3]
  Effect of peptide blocking dose on kidney exposure: unable to reduce kidney exposure
